Each structure is given as a SMILES string. Structures can show the parent of a compound that is named as a salt.

Chain of PIKFYVE (Q9Y2I7 whole entry): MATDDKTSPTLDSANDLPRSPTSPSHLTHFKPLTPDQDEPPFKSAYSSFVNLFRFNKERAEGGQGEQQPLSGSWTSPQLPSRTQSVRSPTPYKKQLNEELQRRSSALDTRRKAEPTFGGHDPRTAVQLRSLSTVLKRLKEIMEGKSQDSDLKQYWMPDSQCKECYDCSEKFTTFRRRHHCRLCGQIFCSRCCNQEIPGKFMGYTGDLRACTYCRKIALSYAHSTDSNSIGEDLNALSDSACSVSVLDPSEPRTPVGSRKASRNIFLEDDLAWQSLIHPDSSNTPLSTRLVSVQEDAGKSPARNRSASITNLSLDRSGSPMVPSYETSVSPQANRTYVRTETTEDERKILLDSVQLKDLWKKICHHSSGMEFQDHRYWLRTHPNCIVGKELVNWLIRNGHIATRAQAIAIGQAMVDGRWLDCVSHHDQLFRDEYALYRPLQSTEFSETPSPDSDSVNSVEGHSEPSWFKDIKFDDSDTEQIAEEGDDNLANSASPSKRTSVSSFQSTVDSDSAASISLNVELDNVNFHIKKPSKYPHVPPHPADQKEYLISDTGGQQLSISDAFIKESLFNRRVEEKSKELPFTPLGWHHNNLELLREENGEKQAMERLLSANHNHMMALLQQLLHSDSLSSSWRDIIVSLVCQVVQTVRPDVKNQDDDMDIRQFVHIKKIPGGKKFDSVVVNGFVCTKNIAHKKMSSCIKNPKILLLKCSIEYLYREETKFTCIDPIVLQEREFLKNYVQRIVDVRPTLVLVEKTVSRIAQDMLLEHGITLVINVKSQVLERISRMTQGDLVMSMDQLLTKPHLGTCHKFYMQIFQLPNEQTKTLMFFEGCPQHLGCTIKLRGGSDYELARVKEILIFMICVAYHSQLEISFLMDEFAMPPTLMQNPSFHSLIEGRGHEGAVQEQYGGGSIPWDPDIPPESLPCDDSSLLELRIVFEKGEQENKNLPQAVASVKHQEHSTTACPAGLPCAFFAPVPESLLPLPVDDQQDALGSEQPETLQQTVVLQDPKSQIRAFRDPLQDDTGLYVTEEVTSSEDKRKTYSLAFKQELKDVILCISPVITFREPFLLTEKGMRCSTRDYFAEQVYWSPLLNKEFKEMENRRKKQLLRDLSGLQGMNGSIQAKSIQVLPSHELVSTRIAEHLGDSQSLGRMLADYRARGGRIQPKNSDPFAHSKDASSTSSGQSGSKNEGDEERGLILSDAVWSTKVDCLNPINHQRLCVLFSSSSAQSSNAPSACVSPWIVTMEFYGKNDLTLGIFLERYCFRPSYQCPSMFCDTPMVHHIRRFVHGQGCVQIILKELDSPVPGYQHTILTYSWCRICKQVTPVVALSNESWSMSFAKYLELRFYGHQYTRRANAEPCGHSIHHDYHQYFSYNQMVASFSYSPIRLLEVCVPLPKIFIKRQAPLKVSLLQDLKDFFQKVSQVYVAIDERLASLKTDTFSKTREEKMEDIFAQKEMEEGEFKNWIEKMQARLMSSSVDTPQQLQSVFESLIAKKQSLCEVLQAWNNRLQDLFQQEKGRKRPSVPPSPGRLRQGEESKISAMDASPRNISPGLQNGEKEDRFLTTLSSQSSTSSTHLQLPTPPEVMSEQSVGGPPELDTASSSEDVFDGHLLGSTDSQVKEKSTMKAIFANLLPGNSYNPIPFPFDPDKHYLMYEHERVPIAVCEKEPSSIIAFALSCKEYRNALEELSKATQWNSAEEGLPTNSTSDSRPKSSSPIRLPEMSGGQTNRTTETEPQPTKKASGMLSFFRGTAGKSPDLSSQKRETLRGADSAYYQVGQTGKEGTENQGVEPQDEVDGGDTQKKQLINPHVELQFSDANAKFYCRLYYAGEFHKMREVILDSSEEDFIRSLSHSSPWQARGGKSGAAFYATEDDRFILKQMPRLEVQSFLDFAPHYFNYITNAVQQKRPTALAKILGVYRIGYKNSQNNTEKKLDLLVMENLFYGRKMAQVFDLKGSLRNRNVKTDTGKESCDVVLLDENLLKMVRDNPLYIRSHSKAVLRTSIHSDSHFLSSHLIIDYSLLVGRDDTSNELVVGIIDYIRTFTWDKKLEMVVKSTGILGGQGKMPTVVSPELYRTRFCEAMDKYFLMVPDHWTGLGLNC

The first test addresses PIKFYVE (Homo sapiens, UniProt Q9Y2I7). In words: PIKFYVE assay (luciferase ADP-Glo kinase assay, Promega). The format is biochemical. The note with it: Table 1. How it is done:
The activity of Compounds 1-20 was measured using a PIKFYVE assay (luciferase ADP-Glo kinase assay available from Promega Corp. of Madison, Wis.).
The activity of Compounds 39-90 was also measured using a PIKFYVE assay (luciferase ADP-Glo kinase assay available from Promega Corp. of Madison, Wis.).
The activity of Compounds 93-347 was also measured using a PIKFYVE assay (luciferase ADP-Glo kinase assay available from Promega Corp. of Madison, Wis.).
In turn, `COCCSc1cc(-n2ccc(-c3cccc(C)c3)n2)nc(OCC2CCCO2)n1` (centres unmarked) [Compound 18, 4-((2-methoxyethyl)thio)-2-((tetrahydrofuran-2-yl)methoxy)-6-(3-(m-tolyl)-1H-pyrazol-1-yl)pyrimidine] displayed a half-maximal inhibitory concentration (IC50) of 1000 to 10000 nM.

The same test, now with this note: Table 2.
In the case of `OCC(O)COc1nc(N2CCOCC2)cc(-n2ncc3ccccc32)n1` (centres unmarked) [Compound 53], the IC50 was in the range of 101 to 1000 nM.
Same read-out and setting: the result for `Cn1cc(CCOc2nc(N3CCOCC3)cc(-n3ccc(-c4cccc(CO)c4)n3)n2)cn1` [Compound 89] reads under 5 nM; that for `Cc1cccc(-c2ccn(-c3cc(N4CCOCC4)nc(NCCc4ccccn4)n3)n2)c1` [Compound 46, 4-morpholino-N-(2-(pyridin-2-yl)ethyl)-6-(3-(m-tolyl)-1H-pyrazol-1-yl)pyrimidin-2-amine], 5 to 100 nM.
Same read-out and setting: the result for `CC(C)(C)c1ccn(-c2cc(N3CCOCC3)nc(OCC(O)CO)n2)n1` (centres unmarked) [Compound 51] reads 1000 to 10000 nM; that for `Cc1cccc(-c2ccn(-c3nc(NCCc4cnccn4)cc(N4CCOCC4)n3)n2)c1` [Compound 47], 5 to 100 nM; that for `Cc1cccc(-c2ccn(-c3cc(N4CCOCC4)nc(Cc4ccccc4)n3)n2)c1` [Compound 42], 101 to 1000 nM.
On the same count and under the same terms, for `OCC(O)COc1nc(N2CCOCC2)cc(-n2cc3ccccc3n2)n1` (centres unmarked) [Compound 52] the value was 101 to 1000 nM.
`Cc1cccc(-c2ccn(-c3cc(N4CC[C@H]5OCC[C@H]54)nc(C(O)CO)n3)n2)c1` (some centres unmarked) [Compound 48] showed an IC50 of 101 to 1000 nM.
Same read-out and setting: the result for `Cn1cc(CCOc2nc(N3CCOCC3)cc(-n3ccc(-c4ccccc4)n3)n2)cn1` [Compound 73] reads under 5 nM; that for `c1cc(-c2cc(N3CCOCC3)nc(OCC3CCCO3)n2)n[nH]1` (centres unmarked) [Compound 45, 4-(6-(1H-pyrazol-3-yl)-2-((tetrahydrofuran-2-yl)methoxy)pyrimidin-4-yl)morpholine], 101 to 1000 nM.
`Clc1ccc(-c2ccn(-c3cc(N4CCOCC4)nc(OCCc4ccccn4)n3)n2)cc1` [Compound 40] had an IC50 of 101 to 1000 nM.

The same test, now with this note: Table 3.
`Cc1c2cc(CN(C)C)ccc2nn1-c1cc(N2CCOCC2)nc(OCCc2cnn(C)c2)n1` [Compound 254, N,N-dimethyl-1-(3-methyl-2-(2-(2-(1-methyl-1H-pyrazol-4-yl)ethoxy)-6-morpholinopyrimidin-4-yl)-2H-indazol-5-yl)methanamine] returned an IC50 of 100 to 5000 nM.
The same measure, in the same setting: for `CO[C@H](CO)c1nc(N2CCOCC2)cc(-n2nc(-c3c[nH]c4cnccc34)cc2C)n1` [Compound 286, (S)-2-methoxy-2-(4-(5-methyl-3-(1H-pyrrolo[2,3-c]pyridin-3-yl)-1H-pyrazol-1-yl)-6-morpholinopyrimidin-2-yl)ethan-1-ol] the value was 100 to 5000 nM.
On to `CCc1cc(-c2ccccc2)nn1-c1cc(N2CCOCC2)nc([C@@H](CO)OC)n1` [Compound 294, (S)-2-(4-(5-ethyl-3-phenyl-1H-pyrazol-1-yl)-6-morpholinopyrimidin-2-yl)-2-methoxyethan-1-ol], for which the IC50 fell in the range of 10 to 100 nM.
Same read-out and setting: the result for `CO[C@H](CO)c1nc(N2CCOCC2)cc(-n2nc(-c3c[nH]c4ncccc34)cc2C)n1` [Compound 284, (S)-2-methoxy-2-(4-(5-methyl-3-(1H-pyrrolo[2,3-b]pyridin-3-yl)-1H-pyrazol-1-yl)-6-morpholinopyrimidin-2-yl)ethan-1-ol] reads 10 to 100 nM; that for `Cc1cccc(-c2ccn(-c3nc(OCCc4cnn(C)c4)cc(N4CCOCC4)n3)n2)c1` [Compound 251, 4-(6-(2-(1-methyl-1H-pyrazol-4-yl)ethoxy)-2-(3-(m-tolyl)-1H-pyrazol-1-yl)pyrimidin-4-yl)morpholine], 3 to 10 nM.
Regarding `CN(C)Cc1ccc2nn(-c3cc(N4CCOCC4)nc(OCCc4cnn(C)c4)n3)cc2c1` [Compound 253, N,N-dimethyl-1-(2-(2-(2-(1-methyl-1H-pyrazol-4-yl)ethoxy)-6-morpholinopyrimidin-4-yl)-2H-indazol-5-yl)methanamine], the IC50 fell in the range of 10 to 100 nM.
The same measure, in the same setting: the result for `CO[C@@H](CO)c1nc(N2CCOCC2)cc(-n2nc(-c3cnc4ccccn34)cc2C)n1` [Compound 281, (R)-2-(4-(3-(imidazo[1,2-a]pyridin-3-yl)-5-methyl-1H-pyrazol-1-yl)-6-morpholinopyrimidin-2-yl)-2-methoxyethan-1-ol] reads 100 to 5000 nM; that for `Cc1cc(-c2ccccc2)nn1-c1cc(N2CCOCC2)c2[nH]ccc2n1` [Compound 243, 4-(5-(5-methyl-3-phenyl-1H-pyrazol-1-yl)-1H-pyrrolo[3,2-b]pyridin-7-yl)morpholine], 100 to 5000 nM.
On the same count and under the same terms, the result for `CO[C@H](CO)c1nc(N2CCOCC2)cc(-n2nc(-c3ccccc3)cc2C2CC2)n1` (single isomer, unassigned) [Compound 256] reads 10 to 100 nM; that for `CO[C@@H](CO)c1nc(N2CCOCC2)cc(-n2ccc(-c3cccc4c3OCO4)n2)n1` [Compound 267, (R)-2-(4-(3-(benzo[d][1,3]dioxol-4-yl)-1H-pyrazol-1-yl)-6-morpholinopyrimidin-2-yl)-2-methoxyethan-1-ol], 10 to 100 nM; that for `Cn1cc(CCOc2nc(N3CCOCC3)cc(-n3ccc(-c4cccc5c4OCCN5)n3)n2)cn1` [Compound 244, 8-(1-(2-(2-(1-methyl-1H-pyrazol-4-yl)ethoxy)-6-morpholinopyrimidin-4-yl)-1H-pyrazol-3-yl)-3,4-dihydro-2H-benzo[b][1,4]oxazine], 10 to 100 nM.
On the same count and under the same terms, for `Cc1cc(-c2ccccc2)nn1-c1nc2c(c(N3CCOCC3)n1)CN(CCc1ccn(C)n1)C2` [Compound 240, 4-(6-(2-(1-methyl-1H-pyrazol-3-yl)ethyl)-2-(5-methyl-3-phenyl-1H-pyrazol-1-yl)-6,7-dihydro-5H-pyrrolo[3,4-d]pyrimidin-4-yl)morpholine] the value was 100 to 5000 nM; for `CO[C@H](CO)c1nc(N2CCOCC2)cc(-n2ccc(-c3cccc4c3COC4)n2)n1` [Compound 270, (S)-2-(4-(3-(1,3-dihydroisobenzofuran-4-yl)-1H-pyrazol-1-yl)-6-morpholinopyrimidin-2-yl)-2-methoxyethan-1-ol], 100 to 5000 nM; for `CO[C@@H](CO)c1nc(N2CCOCC2)cc(-n2nc(-c3c[nH]c4cnccc34)cc2C)n1` [Compound 287, (R)-2-methoxy-2-(4-(5-methyl-3-(1H-pyrrolo[2,3-c]pyridin-3-yl)-1H-pyrazol-1-yl)-6-morpholinopyrimidin-2-yl)ethan-1-ol], 100 to 5000 nM.
`Cc1cccc(N2CC(C)N(c3cc(N4CCOCC4)nc(OCCc4cnn(C)c4)n3)C2=O)c1` (centres unmarked) [Compound 246, 4-methyl-3-(2-(2-(1-methyl-1H-pyrazol-4-yl)ethoxy)-6-morpholinopyrimidin-4-yl)-1-(m-tolyl)imidazolidin-2-one]: the IC50 was 100 to 5000 nM.
Still for that read-out and setting: for `CO[C@@H](CO)c1nc(N2CCOCC2)cc(-n2nc(-c3c[nH]c4cccnc34)cc2C)n1` [Compound 291, (R)-2-methoxy-2-(4-(5-methyl-3-(1H-pyrrolo[3,2-b]pyridin-3-yl)-1H-pyrazol-1-yl)-6-morpholinopyrimidin-2-yl)ethan-1-ol] the value was 100 to 5000 nM.
Compound `CCc1cc(-c2ccccc2)nn1-c1cc(N2CCOCC2)nc([C@H](CO)OC)n1` [Compound 295, (R)-2-(4-(5-ethyl-3-phenyl-1H-pyrazol-1-yl)-6-morpholinopyrimidin-2-yl)-2-methoxyethan-1-ol] returned a half-maximal inhibitory concentration (IC50) of 10 to 100 nM.
As to `Cc1cccc(CC(=O)N(C)c2nc(OCCc3cnn(C)c3)cc(N3CCOCC3)n2)c1` [Compound 250, N-methyl-N-(4-(2-(1-methyl-1H-pyrazol-4-yl)ethoxy)-6-morpholinopyrimidin-2-yl)-2-(m-tolyl)acetamide], the IC50 was over 5000 nM.
On to `Cc1cccc(-c2ccn(-c3nc4c(c(N5CCOCC5)n3)CN(CCc3ccn(C)n3)C4)n2)c1` [Compound 239, 4-(6-(2-(1-methyl-1H-pyrazol-3-yl)ethyl)-2-(3-(m-tolyl)-1H-pyrazol-1-yl)-6,7-dihydro-5H-pyrrolo[3,4-d]pyrimidin-4-yl)morpholine hydrochloride], for which the IC50 lay in the range of 10 to 100 nM.
Still for that read-out and setting: the result for `CO[C@@H](CO)c1nc(N2CCOCC2)cc(-n2nc(-c3c[nH]c4ncccc34)cc2C)n1` [Compound 285, (R)-2-methoxy-2-(4-(5-methyl-3-(1H-pyrrolo[2,3-b]pyridin-3-yl)-1H-pyrazol-1-yl)-6-morpholinopyrimidin-2-yl)ethan-1-ol] reads 10 to 100 nM; that for `CO[C@@H](CO)c1nc(N2CCOCC2)cc(-n2ccc(-c3cnc4ccccn34)n2)n1` [Compound 283, (R)-2-(4-(3-(imidazo[1,2-a]pyridin-3-yl)-1H-pyrazol-1-yl)-6-morpholinopyrimidin-2-yl)-2-methoxyethan-1-ol], 100 to 5000 nM.
Same read-out and setting: for `Cn1cc(CCOc2nc(N3CCOCC3)cc(-n3ccc(C4CCC4)n3)n2)cn1` [Compound 192, 4-(6-(3-cyclobutyl-1H-pyrazol-1-yl)-2-(2-(1-methyl-1H-pyrazol-4-yl)ethoxy)pyrimidin-4-yl)morpholine] the value was 100 to 5000 nM; for `CO[C@@H](CO)c1nc(N2CCOCC2)cc(-n2nc(-c3c[nH]c4ccncc34)cc2C)n1` [Compound 289, (R)-2-methoxy-2-(4-(5-methyl-3-(1H-pyrrolo[3,2-c]pyridin-3-yl)-1H-pyrazol-1-yl)-6-morpholinopyrimidin-2-yl)ethan-1-ol], 100 to 5000 nM; for `Cc1c2ccc(CO)cc2nn1-c1cc(N2CCOCC2)nc(OCCc2cnn(C)c2)n1` [Compound 255, (3-methyl-2-(2-(2-(1-methyl-1H-pyrazol-4-yl)ethoxy)-6-morpholinopyrimidin-4-yl)-2H-indazol-6-yl)methanol], 10 to 100 nM.
Same read-out and setting: the result for `CO[C@H](C)c1cccc(-c2ccn(-c3cc(N4CCOCC4)nc(OCCc4cnn(C)c4)n3)n2)c1` (single isomer, unassigned) [Compound 340] reads 10 to 100 nM; that for `Cc1cccc(-c2ccn(-c3cc(N4CCOCC4)nc(N(C)CCc4ccccn4)n3)n2)c1` [Compound 91, N-methyl-4-morpholino-N-(2-(pyridin-2-yl)ethyl)-6-(3-(m-tolyl)-1H-pyrazol-1-yl)pyrimidin-2-amine], 3 to 10 nM.

The record behind these values is US20230135152A1 (ACURASTEM INCORPORATED, priority 2020, published 2023).
